According to the Deep4Chem optical property database:

Experiment: solvent given as SMILES

Question: Which fluorescence lifetime (in CC#N) does the source give for CCn1c(=O)nc2n(C)c3cc(C)ccc3nc-2c1=O here?
Answer: 7 ns

Question: And the fluorescence lifetime (in CO)?
Answer: 6.3 ns

Question: What about the fluorescence lifetime (in ClCCCl) of the same molecule?
Answer: 6.5 ns

Question: Which fluorescence lifetime (in C1CCCCC1) does the source give for COc1c2ccccc2c(OC)c2c1c1c(F)cccc1n2C here?
Answer: 23.3 ns

Question: What about the fluorescence lifetime (in CC#N) of the same molecule?
Answer: 25.2 ns

Question: What about the fluorescence lifetime (in CO) of the same molecule?
Answer: 24.4 ns

Question: And the fluorescence lifetime (in ClCCl)?
Answer: 21.2 ns

Question: For Cc1ccc(-c2ccc(/C=C/c3ccc([N+](=O)[O-])cc3)cn2)nc1, which fluorescence lifetime (in CC#N) is on record?
Answer: 0.31 ns

Question: For O=[N+]([O-])c1cccc2c1ccc1[n+]2[B-](F)(F)n2c-1cc1c3ccccc3c3ccccc3c12, which fluorescence lifetime (in ClCCl) is on record?
Answer: 2.67 ns

Question: Which fluorescence lifetime (in CCO) does the source give for CCOc1ccc2c(-c3nc(-c4ccccc4)no3)cc(=O)oc2c1 here?
Answer: 6.7 ns

Question: What does the source list for COc1ccc(/C=C/C2=[O+][B-](F)(F)OC(/C=C/c3ccc(OC)cc3)=C2c2ccccc2)cc1?
Answer: fluorescence lifetime (in CC#N): 1.5 ns; fluorescence lifetime (in CC(C)=O): 1.43 ns; fluorescence lifetime (in CCOC(C)=O): 1.18 ns; fluorescence lifetime (in CCOCC): 0.9 ns; fluorescence lifetime (in ClC(Cl)(Cl)Cl): 0.7 ns; fluorescence lifetime (in ClCCl): 1.35 ns

Question: For CC(C)c1cc(C(C)C)c(B2c3ccccc3Oc3cc(-n4c5ccccc5c5c6c(c7ccccc7n6-c6ccccc6)c6c(c7ccccc7n6-c6ccccc6)c54)ccc32)c(C(C)C)c1, which fluorescence lifetime (in CC(C)c1cc(C(C)C)c(-c2ccc(-n3c4ccccc4n4c5ccccc5nc34)nc2)c(C(C)C)c1) is on record?
Answer: 23.1 ns

Question: And the fluorescence lifetime (in O=P(c1ccccc1)(c1ccccc1)c1ccccc1Oc1ccccc1P(=O)(c1ccccc1)c1ccccc1)?
Answer: 24.7 ns

Question: For Oc1ccccc1, which fluorescence lifetime (in C1CCCCC1) is on record?
Answer: 2.5 ns

Question: Which fluorescence lifetime (in ClCCl) does the source give for CC1=C(c2ccc(N(C)C)cc2)C(C)=[N+]2C1=C(c1c(-c3ccccn3)nc3ccccn13)c1c(C)c(-c3ccc(N(C)C)cc3)c(C)n1[B-]2(F)F here?
Answer: 0.2 ns

Question: Which fluorescence lifetime (in CO) does the source give for CCN1C(=CC2=C([O-])C(=Cc3[se]c4ccccc4[n+]3CC)C2=O)[Se]c2ccccc21 here?
Answer: 1.17 ns

Question: What about the fluorescence lifetime (in ClC(Cl)Cl) of the same molecule?
Answer: 4.15 ns

Question: For c1ccc(-c2nn(-c3ccccc3)c3nc4ccccc4cc23)cc1, which fluorescence lifetime (in C1CCCCC1) is on record?
Answer: 17.9 ns

Question: And the fluorescence lifetime (in C1CCOC1)?
Answer: 21.2 ns

Question: What about the fluorescence lifetime (in CC#N) of the same molecule?
Answer: 25.1 ns

Question: And the fluorescence lifetime (in CC(C)=O)?
Answer: 23.4 ns

Question: What about the fluorescence lifetime (in CCCCCl) of the same molecule?
Answer: 19.7 ns

Question: And the fluorescence lifetime (in CCCCOCCCC)?
Answer: 18.6 ns

Question: What about the fluorescence lifetime (in CN(C)C=O) of the same molecule?
Answer: 22 ns

Question: With CCC1(CC)c2cc(/C=C/c3cccs3)ccc2-c2c1c1c(c3c2C(CC)(CC)c2cc(/C=C/c4cccs4)ccc2-3)C(CC)(CC)c2cc(/C=C/c3cccs3)ccc2-1 as the molecule, how does the fluorescence lifetime (in C1CCOC1) read?
Answer: 1.6 ns

Question: For c1ccc(-c2cnc3nn4ccccc4c3n2)cc1, which fluorescence lifetime (in C1CCOC1) is on record?
Answer: 5.3 ns

Question: For Cc1cc(=O)oc2ccc3ccc(O)cc3c12, which fluorescence lifetime (in CC#N) is on record?
Answer: 5.6 ns

Question: For C(#Cc1ccc(C#Cc2ccc(C#Cc3ccccc3)cc2)cc1)c1ccccc1, which fluorescence lifetime (in ClC(Cl)Cl) is on record?
Answer: 1.7 ns

Question: Which results are given for CCc1c(C)[nH]c(C2=[N+]3C(=Cc4c(C)cc(C)n4[B-]3(F)F)c3ccccc32)c1C?
Answer: fluorescence lifetime (in C1CCOC1): 4.41 ns; fluorescence lifetime (in CC#N): 5.55 ns; fluorescence lifetime (in CCCCCC): 7.03 ns; fluorescence lifetime (in CO): 5.6 ns; fluorescence lifetime (in Cc1ccccc1): 5.9 ns; fluorescence lifetime (in ClCCl): 4.93 ns

Question: With CC1=N/C(=C\c2cc(N(C)C)ccc2C#N)C(=O)N1C as the molecule, how does the fluorescence lifetime (in C1CCOC1) read?
Answer: 14.8 ns

Question: And the fluorescence lifetime (in CC#N)?
Answer: 7 ns

Question: And the fluorescence lifetime (in CCCCCC)?
Answer: 24.7 ns

Question: Which fluorescence lifetime (in ClCCl) does the source give for CC1=C(c2ccccc2)C(C)=[N+]2C1=C(c1c(-c3ccccn3)nc3ccccn13)c1c(C)c(-c3ccccc3)c(C)n1[B-]2(F)F here?
Answer: 3.4 ns

Question: Which fluorescence lifetime (in C1CCOC1) does the source give for CCCCCCCCC1(CCCCCCCC)c2ccccc2-c2ccc(N(c3ccc(-n4c5ccccc5c5ccccc54)cc3)c3ccc4c(c3)C(CCCCCCCC)(CCCCCCCC)c3ccccc3-4)cc21 here?
Answer: 1.8 ns

Question: What about the fluorescence lifetime (in CC#N) of the same molecule?
Answer: 1.8 ns

Question: And the fluorescence lifetime (in CC(C)=O)?
Answer: 1.75 ns

Question: And the fluorescence lifetime (in CCCCCC)?
Answer: 1.68 ns

Question: What about the fluorescence lifetime (in CCCCOCCCC) of the same molecule?
Answer: 1.78 ns

Question: What about the fluorescence lifetime (in CCN(CC)CC) of the same molecule?
Answer: 1.69 ns

Question: And the fluorescence lifetime (in CCOC(C)=O)?
Answer: 1.66 ns

Question: And the fluorescence lifetime (in CCOCC)?
Answer: 1.97 ns

Question: And the fluorescence lifetime (in CN(C)C=O)?
Answer: 1.87 ns

Question: What about the fluorescence lifetime (in Cc1ccccc1) of the same molecule?
Answer: 1.75 ns

Question: And the fluorescence lifetime (in ClCCl)?
Answer: 1.62 ns

Question: For CN(C)c1ccc(C2=Cc3c4ccccc4cc[n+]3[B-](F)(F)O2)cc1, which fluorescence lifetime (in ClC(Cl)Cl) is on record?
Answer: 2.34 ns

Question: Which fluorescence lifetime (in C1COCCO1) does the source give for CCOC(=O)c1ccc(NC(=O)COc2cc3c4c([nH]c3c(C)c2C)C(=O)CCC4)cc1 here?
Answer: 1.23 ns

Question: What about the fluorescence lifetime (in CC#N) of the same molecule?
Answer: 1.04 ns

Question: And the fluorescence lifetime (in CCO)?
Answer: 1.26 ns

Question: What about the fluorescence lifetime (in CS(C)=O) of the same molecule?
Answer: 2.12 ns

Question: And the fluorescence lifetime (in Cc1ccccc1)?
Answer: 1.1 ns

Question: For N#Cc1nc2c3ccc(N(c4ccccc4)c4ccccc4)cc3c3cc(N(c4ccccc4)c4ccccc4)ccc3c2nc1C#N, which fluorescence lifetime (in O=P(c1ccccc1)(c1ccccc1)c1cccc(-c2cc(-n3c4ccccc4c4ccccc43)cc(-n3c4ccccc4c4ccccc43)c2)n1) is on record?
Answer: 13.4 ns

Question: For O=c1c2ccccc2n2c3ccc(-c4ccccc4)cc3c(=O)c3cccc1c32, which fluorescence lifetime (in c1cc(-c2cccc(-n3c4ccccc4c4ccccc43)c2)cc(-n2c3ccccc3c3ccccc32)c1) is on record?
Answer: 5.5 ns

Question: And the fluorescence lifetime (in c1cc(-n2c3ccccc3c3ccccc32)cc(-n2c3ccccc3c3ccccc32)c1)?
Answer: 5.5 ns

Question: With O=P1(c2ccccc2)c2ccc(N3c4ccccc4Oc4ccccc43)cc2-c2cc(N3c4ccccc4Oc4ccccc43)ccc21 as the molecule, how does the fluorescence lifetime (in c1ccc2c(c1)c1ccccc1n2-c1ccc(-c2ccc(-n3c4ccccc4c4ccccc43)cc2)cc1) read?
Answer: 35.1 ns

Question: With c1ccc(-c2cc(-c3nnc(-c4ccc(N5c6ccccc6Oc6ccccc65)cc4)o3)c(-c3ccccc3)c(-c3ccccc3)c2-c2ccccc2)cc1 as the molecule, how does the fluorescence lifetime (in c1ccc(-n2c(-c3c(-n4c5ccccc5c5ccccc54)cccc3-n3c4ccccc4c4ccccc43)nc3ccccc32)cc1) read?
Answer: 4.1 ns

Question: Which fluorescence lifetime (in CC#N) does the source give for N#C/C(=C\c1ccc(C#N)cc1)c1nc(-c2ccc(Cl)cc2)cs1 here?
Answer: 2.85 ns

Question: With Cc1ccc2nc3c(=O)n(C)c(=O)nc-3n(C)c2c1 as the molecule, how does the fluorescence lifetime (in CC#N) read?
Answer: 4.9 ns

Question: With CCOC(=O)CCCCCn1c2ccc(Cl)cc2c(=O)c2cc3c(cc21)c(=O)c1cc(Cl)ccc1n3CCCCCC(=O)OCC as the molecule, how does the fluorescence lifetime (in CO) read?
Answer: 22.1 ns
